Source: article PMC2756456 (Clinical cancer research : an official journal of the …, 2009)

Biological target: myosin light chain kinase (MLCK) (Homo sapiens, UniProt Q15746)
Assay: radiometric [γ-33P]ATP kinase assay with peptide substrate KKLNRTLSFAEPG
Assay type: biochemical

Chain of myosin light chain kinase (MLCK) (Q15746 whole entry): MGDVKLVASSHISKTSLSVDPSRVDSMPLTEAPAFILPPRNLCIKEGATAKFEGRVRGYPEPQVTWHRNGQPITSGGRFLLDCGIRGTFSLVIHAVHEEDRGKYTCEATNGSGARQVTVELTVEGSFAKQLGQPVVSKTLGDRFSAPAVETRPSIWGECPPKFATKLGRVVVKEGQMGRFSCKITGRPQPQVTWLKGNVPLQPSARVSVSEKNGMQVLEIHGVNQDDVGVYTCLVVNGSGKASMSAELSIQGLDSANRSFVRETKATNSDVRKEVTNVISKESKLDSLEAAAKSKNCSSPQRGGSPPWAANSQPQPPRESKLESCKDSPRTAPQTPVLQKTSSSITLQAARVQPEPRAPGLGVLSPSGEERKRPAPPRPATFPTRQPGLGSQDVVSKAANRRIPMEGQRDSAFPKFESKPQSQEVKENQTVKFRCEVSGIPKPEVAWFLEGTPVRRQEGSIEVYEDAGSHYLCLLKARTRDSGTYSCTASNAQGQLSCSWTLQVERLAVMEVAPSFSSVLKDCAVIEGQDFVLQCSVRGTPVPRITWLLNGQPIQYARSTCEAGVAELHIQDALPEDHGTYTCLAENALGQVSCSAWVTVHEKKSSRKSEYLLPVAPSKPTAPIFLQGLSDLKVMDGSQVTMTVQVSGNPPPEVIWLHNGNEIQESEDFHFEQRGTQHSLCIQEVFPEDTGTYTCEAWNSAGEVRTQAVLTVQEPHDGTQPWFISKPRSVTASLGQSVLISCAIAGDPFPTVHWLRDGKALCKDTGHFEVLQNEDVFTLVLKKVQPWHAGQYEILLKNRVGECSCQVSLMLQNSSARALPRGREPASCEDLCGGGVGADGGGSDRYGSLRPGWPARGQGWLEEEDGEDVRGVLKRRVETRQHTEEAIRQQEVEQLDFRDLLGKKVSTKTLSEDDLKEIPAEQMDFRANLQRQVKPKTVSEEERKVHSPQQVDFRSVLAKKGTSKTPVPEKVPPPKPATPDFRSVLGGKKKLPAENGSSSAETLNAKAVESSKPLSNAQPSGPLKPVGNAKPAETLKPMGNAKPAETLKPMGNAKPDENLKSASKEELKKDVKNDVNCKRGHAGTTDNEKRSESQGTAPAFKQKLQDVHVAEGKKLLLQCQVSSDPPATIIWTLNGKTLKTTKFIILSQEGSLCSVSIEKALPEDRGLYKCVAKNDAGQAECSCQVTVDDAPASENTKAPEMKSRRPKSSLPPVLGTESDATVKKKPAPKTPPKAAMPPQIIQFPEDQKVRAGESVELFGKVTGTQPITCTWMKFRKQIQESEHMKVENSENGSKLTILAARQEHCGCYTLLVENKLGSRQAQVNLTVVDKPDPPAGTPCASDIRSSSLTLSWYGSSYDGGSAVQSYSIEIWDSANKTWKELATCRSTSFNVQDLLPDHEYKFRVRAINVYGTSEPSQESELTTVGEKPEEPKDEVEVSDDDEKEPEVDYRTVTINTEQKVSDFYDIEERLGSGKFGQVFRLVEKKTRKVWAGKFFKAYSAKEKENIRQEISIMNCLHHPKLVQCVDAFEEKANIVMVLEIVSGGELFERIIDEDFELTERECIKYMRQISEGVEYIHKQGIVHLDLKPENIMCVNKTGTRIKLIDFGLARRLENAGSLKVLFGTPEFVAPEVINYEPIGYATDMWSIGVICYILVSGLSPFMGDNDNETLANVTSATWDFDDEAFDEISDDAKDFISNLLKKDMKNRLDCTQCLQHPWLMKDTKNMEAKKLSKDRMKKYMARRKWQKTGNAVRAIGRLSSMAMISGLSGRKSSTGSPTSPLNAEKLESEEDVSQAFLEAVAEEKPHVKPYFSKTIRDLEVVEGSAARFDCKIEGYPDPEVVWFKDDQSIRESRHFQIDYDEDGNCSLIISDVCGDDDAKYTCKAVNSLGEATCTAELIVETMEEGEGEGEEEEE

## CNCc1ccc(-c2[nH]c3cc(F)cc4c3c2CCNC4=O)cc1 [AG014699]
  IC50: 55 µM
